From the supplement of paper PMC10307832

Experiments:
Experiment in all cases: relative viability (nuclei count vs DMSO), 5 days (fraction); higher = more cells survive
GSK126 = compound: CC[C@H](C)N1C=C(C2=C(C=C(C=C21)C3=CN=C(C=C3)N4CCNCC4)C(=O)NCC5=C(C=C(NC5=O)C)C)C [GSK126]
Procedure, shortened: (§1)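 Lung cancer cell lines in 1536-well plates were exposed by pinning to five library-drug doses (not always all listed) √10 apart, following an overnight hold at 37 °C. MetaXpress counted Hoechst-stained nuclei from 4× images taken after 5 days without medium change. Viability is the median ratio of treated-well to vehicle-well nuclei across plates. Plates required control CV below 25% and at least one doubling.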

MLN4924 = compound: NS(=O)(=O)OC[C@@H]1C[C@@H](n2ccc3c(N[C@H]4CCc5ccccc54)ncnc32)C[C@@H]1O [MLN4924]
Procedure, shortened: as §1

Carboplatin = compound: C1CC(C1)(C(=O)O)C(=O)O.[NH2-].[NH2-].[Pt+2] [Carboplatin]
Procedure, shortened: as §1

Cell Line | relative viability (GSK126; 0.08 µM) | relative viability (GSK126; 0.253 µM) | relative viability (GSK126; 0.8 µM) | relative viability (GSK126; 2.53 µM) | relative viability (GSK126; 8 µM) | relative viability (MLN4924; 0.04 µM) | relative viability (MLN4924; 0.1265 µM) | relative viability (MLN4924; 0.4 µM) | relative viability (MLN4924; 1.265 µM) | relative viability (MLN4924; 4 µM) | relative viability (Carboplatin; 0.08 µM) | relative viability (Carboplatin; 0.253 µM) | relative viability (Carboplatin; 0.8 µM) | relative viability (Carboplatin; 2.53 µM) | relative viability (Carboplatin; 8 µM)
NCI-H2126 | 1.04 | 1.02 | 1.06 | 1.07 | 1 | 1.03 | 1.02 | 0.785 | 0.459 | 0.373 | 1.05 | 1.03 | 1.02 | 0.946 | 0.948
NCI-H2228 | 1.21 | 0.992 | 1.04 | 1.12 | 1.07 | 0.723 | 1.08 | 0.435 | 0.171 | 0.205 | 1.27 | 1.16 | 0.91 | 0.941 | 0.687
NCI-H1623 | 0.974 | 1.04 | 0.959 | 0.954 | 1 | 0.744 | 0.53 | 0.443 | 0.298 | 0.246 | 1.03 | 0.963 | 0.872 | 0.875 | 0.695
SK-LU-1 | 1.01 | 1.05 | 1.02 | 1.14 | 1.08 | 0.99 | 0.799 | 0.369 | 0.191 | 0.201 | 1.16 | 1.07 | 1.06 | 0.975 | 0.802
HARA | 1.07 | 0.936 | 0.931 | 0.855 | 0.756 | 0.855 | 0.834 | 0.412 | 0.103 | 0.127 | 1.02 | 0.937 | 0.932 | 0.921 | 0.944
EPLC-272H | 1.1 | 1.01 | 0.936 | 1.08 | 1.04 | 0.873 | 0.637 | 0.0627 | 0.119 | 0.173 | 1.2 | 1.11 | 1.07 | 0.924 | 0.919
SK-MES-1 | 1.03 | 0.999 | 0.985 | 1.04 | 1.08 | 0.999 | 0.846 | 0.563 | 0.222 | 0.221 | 1.07 | 0.991 | 1.02 | 0.974 | 0.918
COR-L 105 | 1.03 | 0.87 | 0.856 | 1.02 | 0.971 | 0.775 | 0.773 | 0.431 | 0.258 | 0.336 | 0.975 | 0.939 | 0.845 | 0.831 | 0.52
NCI-H727 | 1.02 | 0.946 | 0.849 | 0.997 | 1.02 | 0.844 | 0.587 | 0.5 | 0.307 | 0.326 | 1.11 | 0.841 | 0.94 | 0.83 | 0.671
NCI-H2170 | 1.03 | 1.05 | 0.881 | 1.03 | 0.932 | 1 | 0.92 | 0.406 | 0.164 | 0.197 | 0.957 | 0.944 | 0.972 | 0.964 | 0.864
EKVX | 1.02 | 1.08 | 1.02 | 1.03 | 0.982 | 0.933 | 0.914 | 0.685 | 0.238 | 0.209 | 1.01 | 0.984 | 0.99 | 1.05 | 0.855
NCI-H1437 | 1.05 | 1 | 0.945 | 0.92 | 0.919 | 0.941 | 0.988 | 0.841 | 0.423 | 0.281 | 1.03 | 0.965 | 0.966 | 0.905 | 0.868
PC-3 [JPC-3] | 1.03 | 0.999 | 1.06 | 1.03 | 1.12 | 0.994 | 1.1 | 0.397 | 0.432 | 0.396 | 1.14 | 1.08 | 1.05 | 0.992 | 0.96
LK-2 | 1.01 | 0.988 | 0.985 | 1.08 | 0.994 | 0.971 | 0.787 | 0.618 | 0.245 | 0.239 | 1.11 | 0.943 | 0.947 | 0.937 | 1.06
NCI-H1651 | 1.09 | 0.957 | 0.956 | 1.05 | 1.09 | 1.02 | 1.04 | 0.967 | 0.503 | 0.202 | 0.996 | 1.01 | 0.948 | 0.861 | 0.679
LC-2-ad | 1.09 | 0.985 | 0.988 | 1.02 | 1.05 | 0.922 | 0.825 | 0.521 | 0.235 | 0.181 | 1.01 | 0.948 | 0.955 | 0.953 | 0.849
NCI-H1734 | 1.13 | 0.981 | 0.986 | 1.03 | 1.01 | 1.02 | 0.963 | 0.306 | 0.145 | 0.155 | 1.07 | 1.04 | 0.991 | 1.03 | 0.875
NCI-H460 | 1.08 | 1.06 | 0.984 | 1.01 | 1.05 | 0.976 | 0.985 | 0.914 | 0.288 | 0.105 | 1.02 | 0.981 | 0.994 | 0.915 | 0.412
NCI-H838 | 1.01 | 0.919 | 0.913 | 0.971 | 0.926 | 0.93 | 0.488 | 0.325 | 0.158 | 0.219 | 1.03 | 1.03 | 0.949 | 0.921 | 0.951
NCI-H2347 | 1.08 | 0.976 | 1.04 | 1.05 | 1 | 0.963 | 0.975 | 0.584 | 0.406 | 0.386 | 1.05 | 1 | 1.07 | 1.06 | 0.909
NCI-H1395 | 1.03 | 0.926 | 0.893 | 1 | 0.957 | 0.868 | 0.951 | 0.618 | 0.354 | 0.381 | 1.16 | 0.885 | 0.833 | 0.749 | 0.766
NCI-H647 | 0.879 | 0.964 | 0.896 | 1.05 | 1 | 0.881 | 0.619 | 0.221 | 0.0551 | 0.0691 | 1.13 | 1.02 | 0.986 | 0.944 | 0.767
NCI-H520 | 1.21 | 0.979 | 0.932 | 1.22 | 1.03 | 0.706 | 0.563 | 0.533 | 0.24 | 0.243 | 1.01 | 0.915 | 0.947 | 0.962 | 0.822
